Values joined by “and” are separate entries in the source; they are usually repeats but may differ in a detail not shown here. Identical values can stand only once. Like-named read-outs stand apart in the source and are kept apart here. Residues, ends and D or L forms follow the SMILES beside them.
Experiments:
ACE (rat lung) = test system: T1, ACE (rat lung); assay: In vitro degradation in the presence of rat lung ACE; format: in vitro ADME; conditions: ground rat lung material (rat lung ACE), peptide 100 nM, ground rat lung material 0.1 mg/ml, pH 7.5, read-out: percentage of peptide assayed relative to the control; for remaining at 1 h, 100 nM: T60 min; for remaining at 2 h, 100 nM: T120 min; for remaining at 4 h, 100 nM: T240 min
T1 construct: incubated with ground rat lung material (at 0.1 mg/ml); from tissue; host or cells: rat lung (ground material)
Experimental: (§1) The peptides (100 nM) were incubated with ground rat lung material (at 0.1 mg/ml) or human converting enzyme (5 mU final concentration) in the presence or absence of captopril (10 μM final concentration) in 0.1 M Tris/HCl buffer+0.3 mM NaCl, pH=7.5. A control comprising only the peptides in the presence of 0.1 M Tris/HCl buffer+0.3 mM NaCl, pH=7.5, was carried out.
(§2) A methanol extraction was carried out in order to stop the reaction. At each time, the concentration of the nondegraded peptide was measured by enzyme immunoassay.
(§3) The results were expressed as percentage of peptide assayed relative to the control for each sample time.

rat lung ACE = target: T2, rat lung ACE (Rattus norvegicus, UniProt P47820); assay: as above; format: in vitro ADME
T2 construct: incubated with ground rat lung material (at 0.1 mg/ml); from tissue; host or cells: rat lung (ground material)
T2 sequence (P47820 36-1313): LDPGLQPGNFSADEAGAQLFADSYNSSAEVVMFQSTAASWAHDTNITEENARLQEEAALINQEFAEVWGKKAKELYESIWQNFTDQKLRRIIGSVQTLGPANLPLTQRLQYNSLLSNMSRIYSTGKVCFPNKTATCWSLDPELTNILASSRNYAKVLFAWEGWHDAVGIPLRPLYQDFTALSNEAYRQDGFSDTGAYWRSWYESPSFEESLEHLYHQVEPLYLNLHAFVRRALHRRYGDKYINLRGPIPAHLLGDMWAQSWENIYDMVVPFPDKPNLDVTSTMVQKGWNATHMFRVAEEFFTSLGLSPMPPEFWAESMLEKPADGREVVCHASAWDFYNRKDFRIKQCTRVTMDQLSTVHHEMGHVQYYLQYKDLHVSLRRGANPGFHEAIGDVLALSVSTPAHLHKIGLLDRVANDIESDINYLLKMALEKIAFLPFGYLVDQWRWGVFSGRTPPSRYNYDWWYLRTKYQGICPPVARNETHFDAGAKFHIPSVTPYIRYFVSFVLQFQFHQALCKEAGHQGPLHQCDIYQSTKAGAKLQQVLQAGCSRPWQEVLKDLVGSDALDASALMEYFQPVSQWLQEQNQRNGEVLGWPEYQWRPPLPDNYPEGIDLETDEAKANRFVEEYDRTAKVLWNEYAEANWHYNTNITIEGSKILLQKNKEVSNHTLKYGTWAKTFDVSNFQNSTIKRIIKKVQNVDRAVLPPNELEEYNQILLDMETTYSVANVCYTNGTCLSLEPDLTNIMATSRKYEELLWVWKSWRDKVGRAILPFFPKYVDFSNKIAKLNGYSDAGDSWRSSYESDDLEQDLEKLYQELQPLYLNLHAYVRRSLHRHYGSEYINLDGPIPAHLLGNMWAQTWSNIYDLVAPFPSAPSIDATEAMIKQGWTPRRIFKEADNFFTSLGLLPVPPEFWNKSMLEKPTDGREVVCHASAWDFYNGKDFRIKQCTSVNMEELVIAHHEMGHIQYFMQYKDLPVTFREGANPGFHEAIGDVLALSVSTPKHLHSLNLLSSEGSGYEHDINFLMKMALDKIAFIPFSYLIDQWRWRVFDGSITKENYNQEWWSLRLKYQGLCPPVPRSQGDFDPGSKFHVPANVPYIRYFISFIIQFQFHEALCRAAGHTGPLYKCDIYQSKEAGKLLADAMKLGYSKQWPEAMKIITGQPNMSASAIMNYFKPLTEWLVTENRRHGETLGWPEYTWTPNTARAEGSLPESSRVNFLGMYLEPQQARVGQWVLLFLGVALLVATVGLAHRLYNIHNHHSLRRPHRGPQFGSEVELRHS
Experimental: as §1, §2, §3

[1] = Plasma and urine pharmacokinetics after I.V. bolus in rats; conditions: for % excreted - endog / CLR -endog: endogenous AcSDKP subtracted; for % excreted: urine
human ACE = human ACE (Homo sapiens, UniProt P12821); assay: In vitro degradation in the presence of human ACE; format: in vitro ADME; conditions: in vitro
human ACE, sequence (P12821 30-1306): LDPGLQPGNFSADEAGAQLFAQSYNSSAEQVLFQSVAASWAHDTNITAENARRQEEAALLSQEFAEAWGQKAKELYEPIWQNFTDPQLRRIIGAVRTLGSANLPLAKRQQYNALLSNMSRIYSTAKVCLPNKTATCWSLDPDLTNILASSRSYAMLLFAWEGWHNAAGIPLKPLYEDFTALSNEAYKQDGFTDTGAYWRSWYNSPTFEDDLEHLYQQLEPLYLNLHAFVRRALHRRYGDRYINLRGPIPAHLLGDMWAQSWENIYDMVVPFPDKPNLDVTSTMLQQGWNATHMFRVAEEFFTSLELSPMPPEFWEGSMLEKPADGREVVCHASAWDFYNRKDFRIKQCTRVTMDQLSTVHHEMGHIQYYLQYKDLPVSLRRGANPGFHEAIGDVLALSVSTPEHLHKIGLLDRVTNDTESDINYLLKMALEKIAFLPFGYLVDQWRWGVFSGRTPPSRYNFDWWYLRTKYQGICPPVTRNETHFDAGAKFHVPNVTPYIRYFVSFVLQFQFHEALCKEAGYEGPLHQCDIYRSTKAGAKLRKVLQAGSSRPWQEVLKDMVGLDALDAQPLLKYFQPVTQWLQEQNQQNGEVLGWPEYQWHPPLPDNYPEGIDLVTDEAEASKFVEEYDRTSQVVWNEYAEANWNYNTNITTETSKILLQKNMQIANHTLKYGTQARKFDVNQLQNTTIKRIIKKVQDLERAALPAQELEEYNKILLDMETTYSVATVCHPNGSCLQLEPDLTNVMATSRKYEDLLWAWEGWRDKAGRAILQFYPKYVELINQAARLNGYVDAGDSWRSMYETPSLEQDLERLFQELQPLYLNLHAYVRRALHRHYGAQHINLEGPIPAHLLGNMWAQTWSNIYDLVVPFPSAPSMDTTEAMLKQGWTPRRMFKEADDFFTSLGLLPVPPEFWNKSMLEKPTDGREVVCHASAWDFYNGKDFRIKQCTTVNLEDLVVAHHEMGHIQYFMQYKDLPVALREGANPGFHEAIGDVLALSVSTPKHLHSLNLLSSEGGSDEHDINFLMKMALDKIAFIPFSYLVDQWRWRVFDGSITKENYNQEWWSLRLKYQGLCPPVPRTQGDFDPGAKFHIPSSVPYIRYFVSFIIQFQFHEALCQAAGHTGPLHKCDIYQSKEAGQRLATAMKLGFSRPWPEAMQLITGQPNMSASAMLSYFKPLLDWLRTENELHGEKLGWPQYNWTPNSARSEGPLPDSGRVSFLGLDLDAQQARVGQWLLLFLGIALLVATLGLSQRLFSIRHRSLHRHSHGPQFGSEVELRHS
Experimental: as §1, §2, §3

[2] = with captopril 10 μM, + captopril 10 μM
[3] = Group 1, i.v. bolus, without captopril, mean
[4] = Group 1, i.v. bolus, without captopril, single rats
[5] = Group 2, i.v. bolus, with captopril, 2-4 h, single rats
[6] = Group 2, i.v. bolus, with captopril, mean
[7] = Group 2, i.v. bolus, with captopril, single rats
[8] = summarizing table, rats, i.v. bolus, with captopril
[9] = summarizing table, rats, i.v. bolus, without captopril

Compound: CC(=O)N[C@@H](CO)C(=O)N[C@@H](CC(=O)O)C(=O)N[C@@H](CCCCN)C(=O)N1CCC[C@H]1C(=O)O [AcSDKP, N-acetyl-Ser-Asp-Lys-Pro] (Ac-SDKP-OH; C-terminus assumed)
- remaining at 1 h, 100 nM (ACE (rat lung); [2]): 111%
- remaining at 2 h, 100 nM (ACE (rat lung); [2]): 75%
- remaining at 4 h, 100 nM (ACE (rat lung); [2]): 89%
- remaining at 0.5 h, 100 nM (ACE (rat lung); T30 min, without captopril): 28%
- remaining at 1 h, 100 nM (ACE (rat lung); without captopril): 9%
- remaining at 2 h, 100 nM (ACE (rat lung); without captopril): 5%
- remaining at 4 h, 100 nM (ACE (rat lung); without captopril): 5%
- degradation by rat ACE (rat lung ACE; in vitro): degraded
- percentage of peptide assayed relative to the control (rat lung ACE; peptide 100 nM, ground rat lung material 0.1 mg/ml, pH 7.5, T30 min, + captopril 10 μM): 129%
- Q in urine ([1]; Group 1, i.v. bolus, without captopril, 0-2 h, single rats): 25.1 nmol and 0.0 nmol and 46.7 nmol and 0.1 nmol
- Q in urine ([1]; Group 1, i.v. bolus, without captopril, 2-4 h, single rats): 7.1 nmol and 0.0 nmol and 15.7 nmol and 36.4 nmol
- Q in urine ([1]; Group 1, i.v. bolus, without captopril, 4-5 h, single rats): 33.5 nmol and 51.3 nmol and 0.0 nmol and 14.6 nmol
- Q in urine ([1]; Group 1, i.v. bolus, without captopril, 5-24 h, single rats): 9.9 nmol and 10.2 nmol and 0.0 nmol and 20.6 nmol and 78.5 nmol
- Q in urine ([1]; Group 1, i.v. bolus, without captopril, 24-36 h, single rats): 4.1 nmol and 3.4 nmol and 15.5 nmol and 0.9 nmol
- Q in urine ([1]; Group 1, i.v. bolus, without captopril, 36-48 h, single rats): 4.0 nmol and 1.7 nmol and 3.4 nmol and 2.0 nmol and 7.9 nmol
- Concentration in plasma ([1]; Group 1, i.v. bolus, without captopril, 5 min, single rats): 2188 nM and 1759 nM and 1239 nM and 2100 nM and 1802 nM
- Concentration in plasma ([1]; Group 1, i.v. bolus, without captopril, 10 min, single rats): 729 nM and 400 nM and 265 nM and 671 nM and 508 nM
- Concentration in plasma ([1]; Group 1, i.v. bolus, without captopril, 15 min, single rats): 268 nM and 96 nM and 135 nM and 328 nM and 143 nM
- Concentration in plasma ([1]; Group 1, i.v. bolus, without captopril, 30 min, single rats): 34 nM and 14 nM and 10 nM (2×) and 121 nM
- Concentration in plasma ([1]; Group 1, i.v. bolus, without captopril, 60 min, single rats): 5 nM and 0.36 nM and 0.15 nM and 33 nM and 2 nM
- Concentration in plasma ([1]; Group 1, i.v. bolus, without captopril, 120 min, single rats): ILQ (4×) and 2 nM
- Concentration in plasma ([1]; Group 1, i.v. bolus, without captopril, 180 min, single rats): ILQ
- Concentration in plasma ([1]; Group 1, i.v. bolus, without captopril, 240 min, single rats): ILQ
- Concentration in plasma ([1]; Group 1, i.v. bolus, without captopril, 300 min, single rats): ILQ
- % excreted - endog [1, 3]: 7.86%
- CLR -endog [1, 3]: 11.21 mL/min/kg
- % excreted - endog [1, 4]: 8.9% and 8.0% and 5.6% and 8.3% and 8.5%
- CLR -endog [1, 4]: 8.6 mL/min/kg and 11.1 mL/min/kg and 11.5 mL/min/kg and 11.8 mL/min/kg and 13.0 mL/min/kg
- AUC0-inf [1, 3]: 17393 nM·min
- CLR [1, 3]: 14.52 mL/min/kg
- VD [1, 3]: 1.389 L/kg
- t½ [1, 3]: 6.8 min
- AUC0-inf [1, 4]: 230401 nM·min and 16319 nM·min and 13026 nM·min and 18178 nM·min and 16223 nM·min
- CLR [1, 4]: 10.7 mL/min/kg and 12.5 mL/min/kg and 20.3 mL/min/kg and 12.8 mL/min/kg and 16.4 mL/min/kg
- Q in urine total [1, 4]: 83.7 nmol and 66.6 nmol and 81.3 nmol and 74.5 nmol and 86.5 nmol
- VD [1, 4]: 0.894 L/kg and 1.07 L/kg and 1.034 L/kg and 2.6 L/kg and 1.346 L/kg
- t½ [1, 4]: 6.4 min and 4.7 min and 4.4 min and 12.8 min and 5.9 min
- % excreted [1, 4]: 1.1% and 9.4% and 10.5% and 8.9% and 10.4%
- Q in urine ([1]; Group 2, i.v. bolus, with captopril, 0-2 h, single rats): 0.0 nmol
- Concentration in urine [1, 5]: 126118 nM
- Q in urine [1, 5]: 0.2 nmol and 744.4 nmol and 820.9 nmol and 0.0 nmol and 535.3 nmol
- Q in urine ([1]; Group 2, i.v. bolus, with captopril, 4-6 h, single rats): 0.0 nmol
- Q in urine ([1]; Group 2, i.v. bolus, with captopril, 6-24 h, single rats): 504.6 nmol and 49.0 nmol and 219.7 nmol and 649.1 nmol and 202.3 nmol
- Q in urine ([1]; Group 2, i.v. bolus, with captopril, 24-30 h, single rats): 1.6 nmol and 9.6 nmol and 0.0 nmol (3×)
- Q in urine ([1]; Group 2, i.v. bolus, with captopril, 30-48 h, single rats): 8.0 nmol and 2.5 nmol and 10.6 nmol (2×) and 0.4 nmol
- Concentration in plasma ([1]; Group 2, i.v. bolus, with captopril, 5 min, single rats): 6707 nM and 5413 nM and 5511 nM and 5293 nM and 5393 nM
- Concentration in plasma ([1]; Group 2, i.v. bolus, with captopril, 10 min, single rats): 5920 nM and 4813 nM and 4288 nM and 5439 nM and 4445 nM
- Concentration in plasma ([1]; Group 2, i.v. bolus, with captopril, 15 min, single rats): 5571 nM and 4016 nM and 3399 nM and 3876 nM and 3343 nM
- Concentration in plasma ([1]; Group 2, i.v. bolus, with captopril, 30 min, mean): 2457 nM
- Concentration in plasma ([1]; Group 2, i.v. bolus, with captopril, 30 min, single rats): 2173 nM
- Concentration in plasma ([1]; Group 2, i.v. bolus, with captopril, 60 min, single rats): 1759 nM and 735 nM and 848 nM and 1069 nM and 590 nM
- Concentration in plasma ([1]; Group 2, i.v. bolus, with captopril, 120 min, single rats): 501 nM and 151 nM and 145 nM and 197 nM and 97 nM
- Concentration in plasma ([1]; Group 2, i.v. bolus, with captopril, 180 min, single rats): 159 nM and 32 nM and 39 nM and 48 nM and 21 nM
- Concentration in plasma ([1]; Group 2, i.v. bolus, with captopril, 240 min, single rats): 52 nM and 10 nM and 18 nM and 23 nM and 7 nM
- Concentration in plasma ([1]; Group 2, i.v. bolus, with captopril, 300 min, single rats): 26 nM and 9 nM and 6 nM and 11 nM and 4 nM
- % excreted - endog [1, 6]: 97%
- CLR -endog [1, 6]: 11.67 mL/min/kg
- % excreted - endog [1, 7]: 75.3% and 85.1% and 139.3% and 90.2% and 95.1%
- CLR -endog [1, 7]: 5.2 mL/min/kg and 13.2 mL/min/kg and 16.4 mL/min/kg and 10.1 mL/min/kg and 13.5 mL/min/kg
- AUC0-INF [1, 6]: 224742 nM·min
- CLR [1, 6]: 11.94 mL/min/kg
- Vd [1, 6]: 0.515 L/kg
- t½ [1, 6]: 30.7 min
- AUC0-INF [1, 7]: 341133 nM·min and 196456 nM·min and 200683 nM·min and 217932 nM·min and 167504 nM·min
- CLR [1, 7]: 5.39 mL/min/kg and 13.59 mL/min/kg and 16.71 mL/min/kg and 10.09 mL/min/kg and 13.91 mL/min/kg
- Q in urine total [1, 7]: 514.5 nmol and 805.5 nmol and 1051.2 nmol and 649.5 nmol and 748.3 nmol
- Vd [1, 7]: 0.653 L/kg and 0.499 L/kg and 0.505 L/kg and 0.567 L/kg
- t½ [1, 7]: 35.5 min and 29.2 min and 29.5 min and 31.4 min and 28.1 min
- % excreted [1, 7]: 78.2% and 87.7% and 142.2% and 90.4% and 97.9%
- degradation in vivo ([1]; rats, in the absence of captopril): rapidly degraded in vivo
- Renal clearance [1, 8]: 11.7 mL/min/kg
- T ½ life [1, 8]: 30.7 min
- Total clearance [1, 8]: 11.9 mL/min/kg
- T ½ life [1, 9]: 6.8 min
- Total clearance [1, 9]: 144.4 mL/min/kg
- degradation by ACE of human origin (human ACE): degraded

Reference: patent publication US7601333B2, “Use of a tetrapeptide AcSDKP (SEQ ID No. 1) analog resistant to the angiotensin I converting enzyme for measuring glomerular filtration rate in a human or an animal and kit containing same” (Assistance Publique-Hopitaux de Paris, priority 2003, dated 2009)
